According to ChEMBL document CHEMBL1201862, “PubChem BioAssay data set” (2004):
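Exposure lasted 48 hours, with cells grown in 96-well plates and compounds tested at five concentrations. GI50: concentration for 50% inhibition of growth.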 Activity calls are given as the source filed them. No stated cut-off is given here; in the data, active = GI50 up to about 1.1 µM and inactive = higher.

Key:
Experiment in all cases: NCI anticancer screen, dose series, 48 h
[1] = test system: DU-145
[2] = test system: HCT-116
[3] = test system: LOX IMVI
[4] = test system: SK-OV-3
[5] = test system: CAKI-1
[6] = test system: HOP-92
[7] = test system: OVCAR-3
[8] = test system: M14
[9] = test system: K562
[10] = test system: NCI-H460
[11] = test system: T47D
[12] = test system: SF-295
[13] = test system: SF-268
[14] = test system: HL-60
[15] = test system: TK-10
[16] = test system: UACC-257
[17] = test system: RXF 393
[18] = test system: MCF7
[19] = test system: SK-MEL-2

Structure (SMILES) | GI50 [1] | GI50 [2] | GI50 [3] | GI50 [4] | GI50 [5] | GI50 [6] | GI50 [7] | GI50 [8] | GI50 [9] | GI50 [10] | GI50 [11] | GI50 [12] | GI50 [13] | GI50 [14] | GI50 [15] | GI50 [16] | GI50 [17] | GI50 [18] | GI50 [19]
CC(C)c1nc(Cl)c(Cl)c(Cl)n1 | 7.69 µM (inactive) | 1.33 µM (inactive) | 0.246 µM (active) | 17.7 µM (inactive) | 2.09 µM (inactive) | 3.24 µM (inactive) | 1.99 µM (inactive) | 5.51 µM (inactive) | 0.286 µM (active) | 12.6 µM (inactive) | 4.14 µM (inactive) | 14.5 µM (inactive) | 1.91 µM (inactive) | 1.71 µM (inactive) | 11.4 µM (inactive) | 4.29 µM (inactive) | 2.05 µM (inactive) | 1.75 µM (inactive) | 
C1=N\CCNCC/N=C\c2ccc(cc2)OCc2cccc(n2)COc2ccc/1cc2 | > 100 µM (inactive) | > 100 µM (inactive) |  | 36.3 µM (inactive) | > 100 µM (inactive) | > 100 µM (inactive) | > 100 µM (inactive) | 77.6 µM (inactive) | > 100 µM (inactive) | > 100 µM (inactive) | > 100 µM (inactive) | 24.7 µM (inactive) | 22.2 µM (inactive) | > 100 µM (inactive) |  | > 100 µM (inactive) | 98.9 µM (inactive) | > 100 µM (inactive) | 70.3 µM (inactive)
O=S(=O)(c1ccccc1)[C@H]1[C@@H]2O[C@@H]2C[C@@H]1O | > 100 µM (inactive) | > 100 µM (inactive) |  | > 100 µM (inactive) | > 100 µM (inactive) | > 100 µM (inactive) | > 100 µM (inactive) | > 100 µM (inactive) | > 100 µM (inactive) | > 100 µM (inactive) | > 100 µM (inactive) | > 100 µM (inactive) | > 100 µM (inactive) | > 100 µM (inactive) | > 100 µM (inactive) | > 100 µM (inactive) | > 100 µM (inactive) | > 100 µM (inactive) | > 100 µM (inactive)
CC12CP(=O)(c3ccccc3)CC1c1ccccc1C2c1ccccc1 (stereo not given) | 21 µM (inactive) | 14.3 µM (inactive) |  | 40.1 µM (inactive) |  | 22.1 µM (inactive) | 16.7 µM (inactive) | 17.5 µM (inactive) | 5.9 µM (inactive) | 14.5 µM (inactive) | 16.4 µM (inactive) | 15.6 µM (inactive) | 26.1 µM (inactive) | 7.52 µM (inactive) | 62.2 µM (inactive) |  | 20.8 µM (inactive) | > 100 µM (inactive) | 28 µM (inactive)
Oc1ccc(CCNCc2cc3c(cc2Br)OCO3)cc1 | > 100 µM (inactive) | 61.7 µM (inactive) | 88.9 µM (inactive) | 51.8 µM (inactive) |  | > 100 µM (inactive) | 30.1 µM (inactive) | 38.1 µM (inactive) | 34.8 µM (inactive) | 57.8 µM (inactive) | 41.4 µM (inactive) | 65.2 µM (inactive) | > 100 µM (inactive) | 28.1 µM (inactive) | 75.9 µM (inactive) | 50.2 µM (inactive) | 69.5 µM (inactive) | 70.1 µM (inactive) | 21.7 µM (inactive)
C(=N\N=C1NCCCN1)/c1ccc2ccccc2c1 | 11 µM (inactive) | 10.4 µM (inactive) | 9.14 µM (inactive) | 11.2 µM (inactive) |  | 10.3 µM (inactive) | 14.7 µM (inactive) | 7.98 µM (inactive) | 3.48 µM (inactive) | 4.98 µM (inactive) | 10.4 µM (inactive) | 11.4 µM (inactive) | 14.2 µM (inactive) | 5.24 µM (inactive) | 18.6 µM (inactive) | 17.3 µM (inactive) | 15.5 µM (inactive) | 3.4 µM (inactive) | 13.7 µM (inactive)
